Reference: paper PMC3009643 (BMC Neuroscience, 2010)
pEC50, pIC50: −log10 of the molar value. Read-outs that look alike come from different tables or passages of the source.

Legend:
HEK 293 cells = test: SBFI sodium influx assay in wild type HEK 293 parent cells; assay type: cell-based, human; conditions: wild type HEK 293 parent cell line
rNav1.2 α-subunit = target: T1, rNav1.2 α-subunit (Rattus norvegicus, UniProt P04775); test: cell-based; assay type: cell-based; conditions: for EC50: rNav1.2-CHL 1610 cells, SBFI, 37°C, read-out: EC50 (nM) (95% CI), sodium influx
T1 construct: host or cells: CHL 1610 (Chinese hamster lung)
T1 sequence (P04775 whole entry): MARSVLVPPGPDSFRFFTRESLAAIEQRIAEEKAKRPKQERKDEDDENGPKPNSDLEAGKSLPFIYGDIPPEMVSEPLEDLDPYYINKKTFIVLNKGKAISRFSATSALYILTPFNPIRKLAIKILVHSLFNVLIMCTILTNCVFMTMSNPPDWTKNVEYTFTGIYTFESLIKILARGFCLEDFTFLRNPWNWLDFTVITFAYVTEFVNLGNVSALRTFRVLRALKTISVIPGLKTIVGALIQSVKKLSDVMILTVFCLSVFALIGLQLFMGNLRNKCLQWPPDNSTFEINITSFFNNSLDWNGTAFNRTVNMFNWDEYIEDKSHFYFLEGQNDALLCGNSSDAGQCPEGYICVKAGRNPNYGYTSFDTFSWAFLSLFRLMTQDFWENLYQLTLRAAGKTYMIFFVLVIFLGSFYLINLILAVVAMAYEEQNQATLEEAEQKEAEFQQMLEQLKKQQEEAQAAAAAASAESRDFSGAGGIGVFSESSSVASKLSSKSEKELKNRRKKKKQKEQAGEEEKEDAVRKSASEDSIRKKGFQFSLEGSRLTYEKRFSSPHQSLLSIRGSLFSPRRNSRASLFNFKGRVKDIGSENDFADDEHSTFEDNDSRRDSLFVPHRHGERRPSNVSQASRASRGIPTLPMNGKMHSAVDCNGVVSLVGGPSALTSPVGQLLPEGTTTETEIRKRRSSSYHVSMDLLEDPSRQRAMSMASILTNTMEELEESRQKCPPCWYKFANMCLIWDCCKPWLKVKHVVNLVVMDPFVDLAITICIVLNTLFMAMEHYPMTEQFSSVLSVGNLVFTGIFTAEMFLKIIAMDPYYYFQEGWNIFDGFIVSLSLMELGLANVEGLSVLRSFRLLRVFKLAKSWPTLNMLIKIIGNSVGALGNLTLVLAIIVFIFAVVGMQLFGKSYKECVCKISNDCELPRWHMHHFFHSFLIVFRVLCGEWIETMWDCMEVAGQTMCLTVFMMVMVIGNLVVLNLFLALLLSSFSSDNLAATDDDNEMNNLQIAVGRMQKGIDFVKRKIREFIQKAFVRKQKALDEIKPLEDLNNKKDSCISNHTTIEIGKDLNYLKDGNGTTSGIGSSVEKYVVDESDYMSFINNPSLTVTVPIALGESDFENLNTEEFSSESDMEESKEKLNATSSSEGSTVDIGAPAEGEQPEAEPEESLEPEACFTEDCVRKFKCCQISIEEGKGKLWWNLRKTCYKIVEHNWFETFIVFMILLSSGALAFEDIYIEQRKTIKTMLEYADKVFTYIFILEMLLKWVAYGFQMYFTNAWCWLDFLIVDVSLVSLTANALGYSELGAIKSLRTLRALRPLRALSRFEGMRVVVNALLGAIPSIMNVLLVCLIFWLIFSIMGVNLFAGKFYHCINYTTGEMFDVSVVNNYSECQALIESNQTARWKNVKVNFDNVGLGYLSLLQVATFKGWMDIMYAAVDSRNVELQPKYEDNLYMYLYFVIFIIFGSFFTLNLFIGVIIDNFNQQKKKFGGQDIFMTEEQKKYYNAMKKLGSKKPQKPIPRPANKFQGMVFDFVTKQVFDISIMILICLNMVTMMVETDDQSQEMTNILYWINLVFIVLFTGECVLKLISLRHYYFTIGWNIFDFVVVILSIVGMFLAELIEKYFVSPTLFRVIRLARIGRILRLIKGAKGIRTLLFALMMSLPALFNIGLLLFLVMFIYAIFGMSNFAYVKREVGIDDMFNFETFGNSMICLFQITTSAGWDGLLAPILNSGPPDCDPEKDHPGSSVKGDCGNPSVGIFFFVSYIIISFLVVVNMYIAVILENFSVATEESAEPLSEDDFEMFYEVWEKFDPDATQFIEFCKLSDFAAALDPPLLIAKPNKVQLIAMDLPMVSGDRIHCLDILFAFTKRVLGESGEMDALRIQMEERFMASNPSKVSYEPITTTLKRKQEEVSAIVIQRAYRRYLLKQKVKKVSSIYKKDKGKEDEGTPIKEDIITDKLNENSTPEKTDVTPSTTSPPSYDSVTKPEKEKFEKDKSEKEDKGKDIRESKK

rNav1.5 α-subunit = target: T2, rNav1.5 α-subunit (Rattus norvegicus, UniProt P15389); test: SBFI sodium influx assay in rNav1.5-CHL 1610 cells; assay type: cell-based; conditions: for EC50: rNav1.5-CHL 1610 cells, SBFI, 37°C, read-out: EC50 (nM) (95% CI), sodium influx
T2 construct: host or cells: CHL 1610 (Chinese hamster lung)

rNav1.4 α-subunit = target: T3, rNav1.4 α-subunit (Rattus norvegicus, UniProt P15390); test: SBFI sodium influx assay in rNav1.4-HEK 293 cells; assay type: cell-based; conditions: for maximal response of sodium influx, area under the curve (AUC, fluorescence × time) (95%CI) / EC50: rNav1.4-HEK 293 cells; for EC50: SBFI, 37°C, read-out: EC50 (nM) (95% CI), sodium influx
T3 construct: host or cells: HEK 293
T3 sequence (P15390 whole entry): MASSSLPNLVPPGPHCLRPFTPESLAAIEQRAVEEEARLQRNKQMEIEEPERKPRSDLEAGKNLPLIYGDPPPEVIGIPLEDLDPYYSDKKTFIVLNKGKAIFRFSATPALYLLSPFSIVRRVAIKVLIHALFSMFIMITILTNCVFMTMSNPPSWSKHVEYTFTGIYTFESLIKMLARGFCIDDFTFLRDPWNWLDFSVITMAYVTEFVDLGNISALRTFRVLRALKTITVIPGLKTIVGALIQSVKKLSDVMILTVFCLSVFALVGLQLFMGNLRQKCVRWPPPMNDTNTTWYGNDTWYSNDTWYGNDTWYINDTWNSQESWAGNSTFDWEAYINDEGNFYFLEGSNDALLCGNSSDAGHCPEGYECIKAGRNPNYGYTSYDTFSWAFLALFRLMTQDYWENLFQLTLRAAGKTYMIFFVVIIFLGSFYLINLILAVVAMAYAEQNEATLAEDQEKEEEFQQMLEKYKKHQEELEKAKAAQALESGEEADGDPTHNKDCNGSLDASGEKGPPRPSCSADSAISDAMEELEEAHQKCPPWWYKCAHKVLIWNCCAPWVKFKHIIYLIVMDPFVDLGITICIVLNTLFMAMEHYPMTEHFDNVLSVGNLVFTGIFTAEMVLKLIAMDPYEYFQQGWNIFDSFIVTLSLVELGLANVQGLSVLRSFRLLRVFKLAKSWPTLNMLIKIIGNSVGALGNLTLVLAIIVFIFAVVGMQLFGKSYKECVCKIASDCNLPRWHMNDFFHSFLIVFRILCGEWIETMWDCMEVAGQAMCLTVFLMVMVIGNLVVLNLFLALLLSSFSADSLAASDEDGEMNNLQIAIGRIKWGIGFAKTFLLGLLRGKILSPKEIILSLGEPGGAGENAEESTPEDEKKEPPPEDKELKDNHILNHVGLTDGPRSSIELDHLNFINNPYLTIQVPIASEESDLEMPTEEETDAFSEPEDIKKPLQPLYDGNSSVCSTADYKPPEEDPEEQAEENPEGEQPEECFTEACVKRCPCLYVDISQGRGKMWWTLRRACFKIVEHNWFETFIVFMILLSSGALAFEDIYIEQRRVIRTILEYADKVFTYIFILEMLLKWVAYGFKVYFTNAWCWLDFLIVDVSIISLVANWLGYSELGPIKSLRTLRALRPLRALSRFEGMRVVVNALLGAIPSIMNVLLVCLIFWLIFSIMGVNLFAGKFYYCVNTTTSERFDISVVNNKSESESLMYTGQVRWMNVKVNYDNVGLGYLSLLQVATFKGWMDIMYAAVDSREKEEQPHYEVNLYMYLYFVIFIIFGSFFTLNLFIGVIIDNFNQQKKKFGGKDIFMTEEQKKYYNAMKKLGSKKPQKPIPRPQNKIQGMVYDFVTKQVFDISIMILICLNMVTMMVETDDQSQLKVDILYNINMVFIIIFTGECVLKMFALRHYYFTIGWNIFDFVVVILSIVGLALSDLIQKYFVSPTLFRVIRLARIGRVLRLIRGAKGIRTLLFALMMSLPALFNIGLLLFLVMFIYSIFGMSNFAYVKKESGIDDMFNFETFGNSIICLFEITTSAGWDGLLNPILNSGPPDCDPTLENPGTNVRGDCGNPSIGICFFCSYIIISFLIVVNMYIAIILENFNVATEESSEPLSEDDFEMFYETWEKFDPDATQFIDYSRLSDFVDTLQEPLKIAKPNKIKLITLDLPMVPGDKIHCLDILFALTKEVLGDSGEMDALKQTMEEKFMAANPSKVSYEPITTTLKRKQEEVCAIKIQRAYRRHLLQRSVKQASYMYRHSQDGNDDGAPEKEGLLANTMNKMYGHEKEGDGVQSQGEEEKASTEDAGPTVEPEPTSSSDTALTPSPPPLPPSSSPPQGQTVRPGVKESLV

[1] = test system: rNav1.2-CHL 1610, rNav1.4-HEK 293 and rNav1.5-CHL 160 cells; assay type: cell-based; conditions: 1 μM ATX for 24 h; preliminary experiments
Experimental: Supplementary file 1471-2202-11-154-S1.TIFF: Additional file 1 Lack of toxic effect of ATX in rNav1.2-CHL 1610, rNav1.4-HEK 293 and rNav1.5-CHL 160 cells. The cells were exposed to 1 μM ATX for 24 h and the medium was collected and subjected to LDH activity measurement as described by Koh and Choi (1987; Koh, JY, and Choi, DW. Quantitative determination of glutamate mediated cortical neuronal injury in cell culture by lactate dehydrogenase efflux assay. J Neurosci Methods 20:83-90). […] Click here for file

[2] = target: T4, calcium-permeable DEAA mutant of rNav1.4 α-subunit (Rattus norvegicus, UniProt P15390, K1237A); test: fluo-3 calcium influx assay in DEAA-HEK 293 cells; assay type: cell-based; conditions: for pEC50: fluo-3, read-out: EC50, Ca2+ influx (95% CI)
T4 construct: host or cells: HEK 293
T4 sequence (P15390 whole entry K1237A): as the sequence (P15390 whole entry) above, with K1237A counted along it

CHL 1610 cells = test: SBFI sodium influx assay in wild type CHL 1610 parent cells; assay type: cell-based, Chinese hamster; conditions: wild type CHL 1610 parent cell line
[3] = test system: neuro-2a mouse neuroblastoma cells; conditions: cited from earlier work; for fold less potent than ATX in producing toxicity: neuro-2a mouse neuroblastoma cells
[4] = test system: sodium channel neurotoxin site 2; conditions: cited from earlier work
neocortical neurons = conditions: cited from earlier work

C=C1CC(=O)N[C@@H](C)C(=O)N(C)[C@@H](C(C)C)C(=O)NCC(=O)O[C@@H](/C(C)=C/C(C)=C/C(C)(C)C)[C@@H]1C [ATX, antillatoxin]
sodium influx (in words) (HEK 293 cells): minimal sodium influx
EC50 (rNav1.2 α-subunit): 376 nM
Efficacy (relative), sodium influx (rNav1.2 α-subunit; rNav1.2, relative to ATX = 1): 1
fold more potent than in neuronal rNav1.2, sodium influx (rNav1.5 α-subunit; cardiac rNav1.5 versus rNav1.2): 2 fold
EC50 (rNav1.5 α-subunit): 205 nM
Efficacy (relative), sodium influx (rNav1.5 α-subunit; rNav1.5, relative to ATX = 1): 1
maximal response of sodium influx, area under the curve (AUC, fluorescence × time) (95%CI) (rNav1.4 α-subunit; ATX alone): 439.4
maximal response of sodium influx, area under the curve (AUC, fluorescence × time) (95%CI) (rNav1.4 α-subunit; ATX in the presence of PbTx-2 (3 μM)): 537.9
EC50 (rNav1.4 α-subunit): 165 nM
Efficacy (relative), sodium influx (rNav1.4 α-subunit; rNav1.4, relative to ATX = 1): 1
fold more potent than in neuronal rNav1.2, sodium influx (rNav1.4 α-subunit; skeletal muscle rNav1.4 versus rNav1.2): 2 fold
toxicity (LDH activity, in words) [1]: not toxic
pEC50 ([2]; DEAA-HEK 293 cells): 6.78
sodium influx (in words) (CHL 1610 cells): minimal sodium influx

C=C1CC(=O)N[C@@H](C)C(=O)N(C)[C@@H](C(C)C)C(=O)NCC(=O)O[C@@H](/C(C)=C/CCC(C)(C)C)[C@@H]1C [DH-ATX, 8-demethyl-8,9-dihydro-antillatoxin]
EC50 (rNav1.2 α-subunit): 1130 nM
Efficacy (relative), sodium influx (rNav1.2 α-subunit; rNav1.2, relative to ATX = 1): 0.32
fold less potent than ATX, stimulation of sodium influx (rNav1.2 α-subunit; stated for all three cell lines (rNav1.2-CHL 1610, rNav1.4-HEK 293, rNav1.5-CHL 1610)): 2.5 - 4 fold
EC50 (rNav1.5 α-subunit): 595 nM
Efficacy (relative), sodium influx (rNav1.5 α-subunit; rNav1.5, relative to ATX = 1): 0.25
fold less potent than ATX in producing toxicity [3]: 27 fold
pEC50 ([3]; neuro-2a neuroblastoma cells, read-out: EC50, toxicity): 5.92
EC50 (rNav1.4 α-subunit): 644 nM
Efficacy (relative), sodium influx (rNav1.4 α-subunit; rNav1.4, relative to ATX = 1): 0.33
pEC50 ([2]; DEAA-HEK 293 cells): 6.17
relative efficacy, Ca2+ influx ([2]; DEAA-HEK 293 cells, relative to ATX): 0.24

CCC[C@@H](C)[C@H](O)[C@H](C)[C@H]1OC(=O)[C@H]([C@@H](C)O)NC(=O)[C@H](C(C)C)OC(=O)[C@H](C)[C@H](O)[C@H]([C@@H](C)CC)NC(=O)[C@@]2(C)CSC(=N2)[C@@]2(C)CSC(=N2)c2csc(n2)C[C@H](OC)[C@@H]1C [Hoiamide A, hoiamide A]
fold more potent than veratridine, inhibition of [3H]BTX binding [4]: 360 fold
pIC50 ([4]; read-out: IC50, inhibition of [3H]BTX binding): 7.03

8-demethyl-antillatoxin [reference compound]
fold less potent than ATX in producing toxicity [3]: 244 fold

brevetoxin-2 [PbTx-2, reference compound]
Efficacy (relative), sodium influx (rNav1.2 α-subunit): 0
Efficacy (relative), sodium influx (rNav1.5 α-subunit): 0
efficacy, sodium influx (neocortical neurons): 0.81
Efficacy (relative), sodium influx (rNav1.4 α-subunit): 0
stimulation of Ca2+ influx (in words) [2]: without effect

COc1ccc(C(=O)O[C@H]2CC[C@@]3(C)[C@@H]4CC[C@H]5[C@]6(O)C[C@H](O)[C@@]7(O)[C@@H](CN8C[C@@H](C)CC[C@H]8[C@@]7(C)O)[C@]6(O)C[C@@]53O[C@]24O)cc1OC [Veratridine, veratridine, reference compound]
Efficacy (relative), sodium influx (rNav1.2 α-subunit; rNav1.2, relative to ATX = 1): 0
Efficacy (relative), sodium influx (rNav1.5 α-subunit; rNav1.5, relative to ATX = 1): 0
efficacy, sodium influx (neocortical neurons; neocortical neurons): 0.67
Efficacy (relative), sodium influx (rNav1.4 α-subunit; rNav1.4, relative to ATX = 1): 0
stimulation of Ca2+ influx (in words) ([2]; DEAA-HEK 293 cells): without effect

NC1=N[C@H](O)[C@H]2[C@H]3O[C@]4(O)O[C@@H]([C@@H](O)[C@@]2(N1)[C@@H]4O)[C@]3(O)CO [TTX, tetrodotoxin, reference compound]
pIC50 (rNav1.4 α-subunit; read-out: IC50, inhibition of ATX-induced sodium influx (95% CI)): 7.60
